Data published in patent US6676932B2, “Ultraviolet absorbent, photostabilizer, ultraviolet ray-absorbing composition, photostabilized composition and external preparation for skin” (Shiseido Co., Ltd., priority 2001, dated 2004).
Values belong to the compound of their own block, whether it stands above or below them.

Key:
Type in all cases: physicochemical
[1] = Dye stabilization effect under daylight exposure (Test Examples 6-91); set-up: key to Δ E: color difference ΔE in Lab vs. color before daylight exposure; key to Appearance (visual determination): ◯: no change; Δ: almost no change; x: change; details: photostabilizer 0.05 wt %, daylight exposure (80 MJ)
Procedure: For observation of the change of the appearance of each test sample (determination based on visual observation) and the measurement of color difference (ΔE) before and after daylight exposure (80 MJ), the test sample was prepared.
(§1) With a spectrophotometer, the color was measured on the Lab coordinate system, to calculate the color difference on the basis of the color before daylight exposure. More specifically, the color difference (ΔE) was calculated on the basis of the measured values (L1, a1, b1) before daylight exposure.

[2] = Stabilization effect on perfume under daylight exposure (Test Examples 92 to 181); set-up: key: ◯: no change; Δ: almost no change; x: change; details: daylight exposure (80 MJ)
Procedure: Each test sample was prepared for observation of the change of the odor of the test sample (determined by perfume coordinator) before and after daylight exposure (80 MJ).

[3] = Drug stabilization effect under daylight exposure (Test Examples 182 to 211); set-up: key to Appearance (visual determination): ◯: no change; Δ: almost no change; x: change; details: photostabilizer 0.05 wt %, daylight exposure (80 MJ); for Remaining ratio (%): liquid chromatography
Procedure: (§2) For observation of the change of the appearance of each test sample (determination based on visual observation) and the measurement of the remaining ratio by liquid chromatography before and after daylight exposure (80 MJ), the test sample was prepared.

[4] = Dye stabilization effect in blend with sequestering agents (Test Examples 212 to 275); details: daylight exposure (80 MJ)
Procedure: Each test sample was prepared for observation of the change of the appearance of each test sample (determined visually) and measurement of the color difference (ΔE) before and after daylight exposure (80 MJ).
as §1

[5] = Drug stabilization effect blended with sequestering agent (Test Examples 372 to 391); set-up: key to Appearance (visual determination): ◯: no change; Δ: almost no change; x: change; details: daylight exposure (80 MJ)
Procedure: Then, the photostabilization effect of the pyridazine derivative in combination with sequestering agents on each drug and the change of the appearance of each composition were examined, by using the following formulation for assessment.
as §2

[6] = dye Blue 1 (Brilliant Blue FCF) 0.0001 wt %
[7] = dye Green 3 (Fast Green FCF) 0.001 wt %
[8] = dye Red 227 (Acid Fuchsine D) 0.0001 wt %
[9] = dye Yellow 5 (Sunset Yellow FCF) 0.001 wt %
[10] = dyes Yellow 203 (Quinoline Yellow WS) 0.0001 + Yellow 5 (Sunset Yellow FCF) 0.0001 wt %
[11] = base perfume Fruity, photostabilizer 0.1 wt %
[12] = natural perfume Nelori oil, photostabilizer 0.1 wt %
[13] = synthetic perfume Limonene oil, photostabilizer 0.05 wt %
[14] = drug L-ascorbic acid 2-glucoside 2.0 wt %
[15] = dyes Red 106 (Acid red) 0.00001 + Yellow 203 (Quinoline Yellow WS) 0.0001 wt %
[16] = base perfume Muge, photostabilizer 0.05 wt %
[17] = base perfume Spicy, photostabilizer 0.2 wt %
[18] = natural perfume Jasmine oil, photostabilizer 0.05 wt %
[19] = synthetic perfume Rose oxide, photostabilizer 0.2 wt %
[20] = drug Dipotassium glycyrrhizinate 0.05 wt %
[21] = dyes Red 213 (Rhodamine B) 0.00001 + Blue 1 (Brilliant Blue FCF) 0.00001 wt %
[22] = dyes Red 227 (Acid Fuchsine D) 0.0001 + Yellow 5 (Sunset Yellow FCF) 0.0001 wt %
[23] = dyes Red 401 (Violanin R) 0.0001 + Blue 1 (Brilliant Blue FCF) 0.00001 wt %
[24] = drug dibutylhydroxytoluene 0.01 wt %
[25] = drug dl-α-tocopherol 2-L-ascorbic acid phosphate diester potassium salt 0.01 wt %
[26] = dye Blue 1 (Brilliant Blue FCF) 0.001, sequestering agent 0.05 alone, photostabilizer 0
[27] = dye Red 227 (Acid Fuchsine D) 0.0001, sequestering agent 0.02 alone, photostabilizer 0
[28] = drug dl-α-tocopherol 2-L-ascorbic acid phosphate diester potassium salt 0.01, sequestering agent blend amount 0.03, photostabilizer 0
[29] = drug Glycyrrhizinic acid dipotassium 0.05, sequestering agent blend amount 0.03, photostabilizer 0
[30] = drug L-ascorbic acid 2-glucoside 2.0, sequestering agent blend amount 0.03, photostabilizer 0
[31] = drug dibutylhydroxy toluene 0.01, sequestering agent blend amount 0.03, photostabilizer 0

Compound: c1cc(N2CCOCC2)nnc1N1CCOCC1 [3,6-Dimorpholinopyridazine]
Appearance (visual determination) [1, 6]: ◯ | Δ E [1, 6]: 1.25 | Appearance (visual determination) [1, 7]: ◯ | Δ E [1, 7]: 0.44 | Appearance (visual determination) [1, 8]: ◯ | Δ E [1, 8]: 0.53 | Appearance (visual determination) [1, 9]: ◯ | Δ E [1, 9]: 0.51 | Appearance (visual determination) [1, 10]: ◯ | Δ E [1, 10]: 0.40 | odor determination [2, 11]: ◯ | odor determination [2, 12]: ◯ | odor determination [2, 13]: ◯ | Appearance (visual determination) [3, 14]: ◯ | Remaining ratio (%) [3, 14]: 98.5% | Δ E ([4]; dyes Red 213 (Rhodamine B) 0.00001 + Blue 1 (Brilliant Blue FCF) 0.00001, no sequestering agent, photostabilizer blend amount 0.02): 1.98 | Δ E ([4]; dyes Red 213 (Rhodamine B) 0.00001 + Blue 1 (Brilliant Blue FCF) 0.00001, with ethylenediaminehydroxyethyl trisodium triacetate 0.03, photostabilizer blend amount 0.02): 1.32 | Appearance (visual determination) ([5]; drug dibutylhydroxy toluene 0.01, no sequestering agent, photostabilizer blend amount 0.03): Δ | Appearance (visual determination) ([5]; drug dibutylhydroxy toluene 0.01, with sodium metaphosphate 0.03, photostabilizer blend amount 0.03): ◯

Compound: Oc1nnccc1N1CCOCC1 [3-Hydroxy-4-morpholinopyridazine, 3-hydroxy-4-morpholinopyridazine]
Appearance (visual determination) [1, 6]: ◯ | Δ E [1, 6]: 1.26 | Appearance (visual determination) [1, 7]: ◯ | Δ E [1, 7]: 0.48 | Appearance (visual determination) [1, 8]: ◯ | Δ E [1, 8]: 0.60 | Appearance (visual determination) [1, 9]: ◯ | Δ E [1, 9]: 0.62 | Appearance (visual determination) [1, 15]: ◯ | Δ E [1, 15]: 0.80 | odor determination [2, 11]: ◯ | odor determination [2, 16]: ◯ | odor determination [2, 17]: ◯ | odor determination [2, 18]: ◯ | odor determination [2, 19]: ◯ | Appearance (visual determination) [3, 20]: ◯ | Remaining ratio (%) [3, 20]: 99.2% | Δ E ([4]; dyes Red 401 (Violanin R) 0.0001 + Blue 1 (Brilliant Blue FCF) 0.00001, no sequestering agent, photostabilizer blend amount 0.02): 1.34 | Δ E ([4]; dyes Red 401 (Violanin R) 0.0001 + Blue 1 (Brilliant Blue FCF) 0.00001, with ethylenediaminetetraacetate trisodium 0.03, photostabilizer blend amount 0.02): 0.91

Compound: COc1ccc(C(=O)CC(=O)c2ccc(C(C)(C)C)cc2)cc1 [4-tert-Butyl-4′-methoxydibenzoylmethane, reference compound]
Appearance (visual determination) [1, 6]: Δ | Δ E [1, 6]: 1.49 | Appearance (visual determination) [1, 7]: Δ | Δ E [1, 7]: 0.62 | Appearance (visual determination) [1, 8]: Δ | Δ E [1, 8]: 0.95 | Appearance (visual determination) [1, 9]: Δ | Δ E [1, 9]: 0.88 | Appearance (visual determination) [1, 15]: Δ | Δ E [1, 15]: 1.02 | Appearance (visual determination) [1, 21]: Δ | Δ E [1, 21]: 1.17 | Appearance (visual determination) [1, 22]: Δ | Δ E [1, 22]: 0.80 | Appearance (visual determination) [1, 23]: Δ | Δ E [1, 23]: 0.93 | Appearance (visual determination) [1, 10]: ◯ | Δ E [1, 10]: 0.48 | odor determination [2, 11]: Δ | odor determination [2, 16]: Δ | odor determination ([2]; base perfume Rose, photostabilizer 0.05 wt %): Δ | odor determination [2, 17]: Δ | odor determination ([2]; base perfume Woody, photostabilizer 0.1 wt %): Δ | odor determination [2, 18]: Δ | odor determination ([2]; natural perfume Lavender oil, photostabilizer 0.1 wt %): Δ | odor determination [2, 12]: Δ | odor determination ([2]; natural perfume Rose oil, photostabilizer 0.05 wt %): Δ | odor determination ([2]; natural perfume Ylang ylang oil, photostabilizer 0.2 wt %): Δ | odor determination ([2]; synthetic perfume Citral, photostabilizer 0.1 wt %): Δ | odor determination [2, 13]: Δ | odor determination ([2]; synthetic perfume Linalool, photostabilizer 0.05 wt %): Δ | odor determination ([2]; synthetic perfume Linalyl acetate, photostabilizer 0.1 wt %): Δ | odor determination [2, 19]: Δ | Appearance (visual determination) [3, 20]: Δ | Remaining ratio (%) [3, 20]: 96.6% | Appearance (visual determination) [3, 14]: Δ | Remaining ratio (%) [3, 14]: 97.0% | Appearance (visual determination) [3, 24]: Δ | Remaining ratio (%) [3, 24]: 95.2% | Appearance (visual determination) [3, 25]: Δ | Remaining ratio (%) [3, 25]: 94.5% | Appearance (visual determination) ([3]; drug salicylic acid 0.1 wt %): Δ | Remaining ratio (%) ([3]; drug salicylic acid 0.1 wt %): 97.2%

Second part, led by results:

Δ E ([4]; dyes Red 106 (Acid Red) 0.00001 + Yellow 203 (Quinoline Yellow WS) 0.0001, sequestering agent blend amount 0.02, photostabilizer 0): 3.56 | Δ E ([4]; dyes Red 213 (Rhodamine B) 0.00001 + Blue 1 (Brilliant Blue FCF) 0.00001, sequestering agent blend amount 0.03, photostabilizer 0): 3.85 | Appearance (visual determination) [5, 28]: x | Remaining ratio (%) [5, 28]: 70.1%
Compound: O=C([O-])CN(CCO)CCN(CC(=O)[O-])CC(=O)[O-].[Na+].[Na+].[Na+] [ethylenediaminehydroxyethyl trisodium triacetate]
Δ E [4, 26]: 7.63 | Δ E [4, 27]: 1.43

Δ E ([4]; dyes Red 227 (Acid Fuchsine D) 0.0001 + Yellow 203 (Quinoline Yellow WS) 0.0001, sequestering agent blend amount 0.02, photostabilizer 0): 3.01 | Δ E ([4]; dyes Red 401 (Violanin R) 0.0001 + Green 3 (Fast Green FCF) 0.00001, sequestering agent blend amount 0.03, photostabilizer 0): 4.23 | Δ E ([4]; dyes Yellow 203 (Quinoline Yellow WS) 0.0001 + Yellow 5 (Sunset Yellow FCF) 0.0001, sequestering agent blend amount 0.01, photostabilizer 0): 1.44 | Appearance (visual determination) [5, 29]: x | Remaining ratio (%) [5, 29]: 85.8% | Appearance (visual determination) [5, 30]: x | Remaining ratio (%) [5, 30]: 85.2% | Appearance (visual determination) [5, 31]: x | Remaining ratio (%) [5, 31]: 54.7%
Compound: sodium metaphosphate
Δ E [4, 26]: 7.78 | Δ E ([4]; dye Green 3 (Fast Green FCF) 0.001, sequestering agent 0.1 alone, photostabilizer 0): 1.77 | Δ E [4, 27]: 1.37 | Δ E ([4]; dye Yellow 5 (Sunset Yellow FCF) 0.0001, sequestering agent 0.03 alone, photostabilizer 0): 1.68
